ChEMBL document CHEMBL1148380, “Quantitative structure-activity relationships for gammadelta T cell activation by bisphosphonates” (J Med Chem, 2004)

Legend:
Assay type in all cases: functional, cell-based
Conditions in all cases: Homo sapiens, T-cell
[1] = Inhibitory activity, for stimulation of TNF-alpha release in gamma-delta T cells, using a constrained maximum TNF-alpha release of 2700 pg/mL
[2] = Inhibitory activity, for stimulation of TNF-alpha release in gamma-delta T cells, using individual observed maximum TNF-alpha release
[3] = pIC50 value for stimulation of TNF-alpha release in gamma-delta T cells, using a constrained maximum TNF-alpha release of 2700 pg/mL
[4] = pIC50 value for stimulation of TNF-alpha release in gamma-delta T cells, using individual observed maximum TNF-alpha release

Structure (SMILES) | IC50 [1] [µM] | IC50 [2] [µM] | IC50 [3] [µM] | IC50 [4] [µM]
CC1CCCC(C)N1C(P(=O)(O)O)P(=O)(O)O (stereo not given) | 1650 |  | 1660 | 
CC1CCCN(C(P(=O)(O)O)P(=O)(O)O)C1 (stereo not given) | 348 |  | 347 | 
CC1CCCCN1C(P(=O)(O)O)P(=O)(O)O (stereo not given) | 2740 |  | 2750 | 
CCCCCNC(P(=O)(O)O)P(=O)(O)O [(PENTYLAMINO)METHYLENEDIPHOSPHONIC ACID] | 41 | 7.8 | 40.7 | 7.76
O=P(O)(O)C(NC1CCCCCC1)P(=O)(O)O [INCADRONIC ACID] | 15 | 11 | 14.8 | 11.5
Cc1ccnc(NC(P(=O)(O)O)P(=O)(O)O)c1 | 14 | 13 | 14.5 | 12.6
O=P(O)(O)C(Sc1ccccn1)P(=O)(O)O | 67 |  | 67.6 | 
CC1CCN(C(P(=O)(O)O)P(=O)(O)O)CC1 | 24 |  | 23.4 | 
O=P(O)(O)C(NC1CCCCCCC1)P(=O)(O)O [(CYCLOOCTYLAMINO)METHYLENEDIPHOSPHONIC ACID] | 110 | 44 | 110 | 43.7
Cc1cccc(NC(P(=O)(O)O)P(=O)(O)O)n1 | 28 | 12 | 28.2 | 12
O=P(O)(O)C(NCc1ccc(F)cc1)P(=O)(O)O | 63 |  | 63.1 | 
CC(C)CCNC(P(=O)(O)O)P(=O)(O)O [(ISOPENTYLAMINO)METHYLENEDIPHOSPHONIC ACID] | 47 | 40 | 46.8 | 39.8
O=P(O)(O)C(NC1CCCC1)P(=O)(O)O [(CYCLOPENTYLAMINO)METHYLENEDIPHOSPHONIC ACID] | 55 | 25 | 55 | 25.1
O=P(O)(O)C(Nc1ccccn1)P(=O)(O)O | 16 | 7.4 | 15.5 | 7.41
CCCCCCCCCNC(P(=O)(O)O)P(=O)(O)O [(NONYLAMINO)METHYLENEDIPHOSPHONIC ACID] | 169 | 66 | 170 | 66.1
CCN(C1CCCCC1)C(P(=O)(O)O)P(=O)(O)O | 103 |  | 102 | 
CCCCNC(P(=O)(O)O)P(=O)(O)O [(BUTYLAMINO)METHYLENEDIPHOSPHONIC ACID] | 13 | 10 | 12.9 | 10.2
CCC(C)CNC(P(=O)(O)O)P(=O)(O)O (stereo not given) | 19 | 9 | 19.5 | 8.91

Structure (SMILES) | IC50 [1] [µM] | IC50 [2] [µM] | IC50 [3] [µM] | IC50 [4] [µM]
O=P(O)(O)C(NC1CCC1)P(=O)(O)O [(CYCLOBUTYLAMINO)METHYLENEDIPHOSPHONIC ACID] | 127 | 56 | 126 | 56.2
O=P(O)(O)C(CNc1ccncc1)P(=O)(O)O | 16 | 9.9 | 16.2 | 10
Cc1cc(Br)cnc1NC(P(=O)(O)O)P(=O)(O)O | 72 |  | 72.4 | 
O=P(O)(O)C(NC1CCCCC1)P(=O)(O)O [(CYCLOHEXYLAMINO)METHYLENEDIPHOSPHONIC ACID] | 47 | 40 | 46.8 | 39.8
CC(N)CC(O)(P(=O)(O)O)P(=O)(O)O (stereo not given) | 110 | 63 | 110 | 63.1
CN(C)CCCC(P(=O)(O)O)P(=O)(O)O | 400 |  | 398 | 
O=P(O)(O)C(Nc1cccnc1)P(=O)(O)O | 24 | 14 | 24 | 14.5
O=P(O)(O)C(N1CCCCCC1)P(=O)(O)O [N-(HEXAMETHYLENEIMINO)METHYLENEBISPHOSPHONIC ACID] | 13 | 11 | 12.9 | 11.2
O=P(O)(O)C(N1CCSCC1)P(=O)(O)O [THIOMORPHOLINOMETHYLENEDIPHOSPHONIC ACID] | 597 | 190 | 603 | 191
CCC1CCCCN1C(P(=O)(O)O)P(=O)(O)O (stereo not given) | 1200 |  | 1200 | 
Cc1cccnc1NC(P(=O)(O)O)P(=O)(O)O | 4.9 | 4.3 | 4.9 | 4.37
O=P(O)(O)C(N1CCCCC1)P(=O)(O)O | 122 | 66 | 120 | 66.1
CC(C)(C)c1cccc(NC(P(=O)(O)O)P(=O)(O)O)c1 | 25200 |  | 25100 | 
CCCNC(P(=O)(O)O)P(=O)(O)O [(PROPYLAMINO)METHYLENEDIPHOSPHONIC ACID] | 35 | 18 | 34.7 | 18.2
CCCN(CCC)C(P(=O)(O)O)P(=O)(O)O [(DIPROPYLAMINO)METHYLENEDIPHOSPHONIC ACID] | 83 | 41 | 83.2 | 40.7
CCN(CC)C(P(=O)(O)O)P(=O)(O)O [(DIETHYLAMINO)METHYLENEDIPHOSPHONIC ACID] | 2910 | 132 | 2880 | 132
O=P(O)(O)C(N1CCCCCCC1)P(=O)(O)O [N-(HEPTAMETHYLENEIMINO)METHYLENEBISPHOSPHONIC ACID] | 68 |  | 67.6 | 

The remaining lines, values ahead:

IC50 [1] [µM] | IC50 [2] [µM] | IC50 [3] [µM] | IC50 [4] [µM] | Structure (SMILES)
23 | 19 | 22.9 | 19.5 | CN(CCc1ccccc1)CCC(O)(P(=O)(O)O)P(=O)(O)O
9020 |  | 8910 |  | Cc1cccc(CC(O)(P(=O)(O)O)P(=O)(O)O)c1
14 | 4.8 | 14.5 | 4.9 | O=P(O)(O)C(CNc1ccccn1)P(=O)(O)O
52 | 53 | 52.5 | 53.7 | NCCCC(O)(P(=O)(O)O)P(=O)(O)O [ALENDRONIC ACID]
941 | 62 | 933 | 61.7 | NCCC(O)(P(=O)(O)O)P(=O)(O)O [PAMIDRONIC ACID]
143 | 98 | 141 | 97.7 | O=P(O)(O)C(O)(CCNCCCOc1ccccc1)P(=O)(O)O
121 | 63 | 120 | 63.1 | CN(CCCc1ccccc1)CCC(O)(P(=O)(O)O)P(=O)(O)O
112 | 46 | 112 | 46.8 | CN(C)CCC(O)(P(=O)(O)O)P(=O)(O)O [OLPADRONIC ACID]
917 | 228 | 912 | 229 | O=P(O)(O)C(O)(CCc1cccnc1)P(=O)(O)O
213 | 102 | 214 | 102 | NCCCCC(O)(P(=O)(O)O)P(=O)(O)O
10 |  | 10.5 |  | O=P(O)(O)C(Cc1cccnc1)P(=O)(O)O
19900 | 251 | 20000 | 251 | Nc1ccc(CC(O)(P(=O)(O)O)P(=O)(O)O)cc1
 | 5.2 |  | 5.25 | O=P(O)(O)C(O)(C[n+]1cc[nH]c1)P(=O)(O)O
5.6 | 5.7 | 5.62 | 5.75 | O=P(O)(O)C(O)(Cc1ccccn1)P(=O)(O)O
12 | 7.8 | 12 | 7.76 | O=P(O)(O)C(O)(Cc1c[nH]cn1)P(=O)(O)O
8 | 4.1 | 7.94 | 4.07 | O=P(O)(O)C(O)(Cc1cnc2ccccn12)P(=O)(O)O [MINODRONIC ACID]
2070 |  | 2090 |  | O=P(O)(O)C(O)(Cn1ccnn1)P(=O)(O)O
1610 | 90 | 1620 | 91.2 | CCCCCC(O)(P(=O)(O)O)P(=O)(O)O
2820 | 395 | 2820 | 398 | O=P(O)(O)C(O)(Cc1ccccc1)P(=O)(O)O
2110 | 213 | 2090 | 214 | CCCCCCC(O)(P(=O)(O)O)P(=O)(O)O
16 | 9.9 | 16.2 | 10 | CC(CCCCc1ccccc1)CCC(O)(P(=O)(O)O)P(=O)(O)O (stereo not given)
21 | 22 | 20.9 | 21.4 | O=P(O)(O)C(O)(Cc1ccncc1)P(=O)(O)O
31 | 31 | 30.9 | 31.6 | CCCCCN(C)CCC(O)(P(=O)(O)O)P(=O)(O)O [IBANDRONIC ACID]
110 |  | 110 |  | O=[N+]([O-])c1cccc(CC(O)(P(=O)(O)O)P(=O)(O)O)c1
6.2 | 6.9 | 6.17 | 6.92 | O=P(O)(O)C(O)(Cc1cccnc1)P(=O)(O)O [RISEDRONIC ACID]
503 | 1.96 | 501 | 195 | NCCCCCC(O)(P(=O)(O)O)P(=O)(O)O [NERIDRONIC ACID]
